Laboratory results taken from US10597388B2, “Pyridazinone herbicides” (FMC CORPORATION, priority 2014, dated 2020).

What was measured:
Test in all cases: Test D controlled growth environment herbicide test, pre- and postemergence
Type in all cases: in vivo
[1] = tested on: bluegrass (annual bluegrass, Poa annua)
In short: (§1)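 Species sown in silt loam and sprayed preemergence, or grown in peat-based medium to 2–18 cm (1- to 4-leaf stage) and sprayed postemergence, with compounds in non-phytotoxic solvent plus surfactant. Visual injury scored versus controls after 14–21 d in a controlled environment, 0 (no effect) to 100 (complete control).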

[2] = tested on: ryegrass, Italian (Italian ryegrass, Lolium multiflorum)
In short: as §1

[3] = tested on: deadnettle (henbit deadnettle, Lamium amplexicaule)
In short: as §1

[4] = tested on: chickweed (common chickweed, Stellaria media)
In short: as §1

[5] = tested on: field poppy (Papaver rhoeas)
In short: as §1

[6] = tested on: foxtail, green (green foxtail, Setaria viridis)
In short: as §1

[7] = tested on: radish, wild (wild radish, Raphanus raphanistrum)
In short: as §1

[8] = tested on: canarygrass (Phalaris minor)
In short: as §1

[9] = tested on: wheat, winter (winter wheat, Triticum aestivum)
In short: as §1

[10] = tested on: windgrass (Apera spica-venti)
In short: as §1

[11] = tested on: barley, winter (winter barley, Hordeum vulgare)
In short: as §1

[12] = tested on: barley, spring (spring barley, Hordeum vulgare)
In short: as §1

[13] = tested on: mustard, wild (wild mustard, Sinapis arvensis)
In short: as §1

[14] = Postemergence, 31 g ai/ha, scale 0 to 100 (0 no effect, 100 complete control)
[15] = Postemergence, 125 g ai/ha, visual rating on scale 0 (no effect) to 100 (complete control), 14 to 21 d
[16] = Postemergence, 250 g ai/ha, scale 0 to 100 (0 no effect, 100 complete control)
[17] = Preemergence, 62 g ai/ha, scale 0 to 100 (0 no effect, 100 complete control)
[18] = Preemergence, 125 g ai/ha, scale 0 to 100 (0 no effect, 100 complete control)
[19] = Preemergence, 250 g ai/ha, scale 0 to 100 (0 no effect, 100 complete control)
[20] = postemergence, 62 g ai/ha, scale 0 to 100, 0 no effect, 100 complete control

Compound: Cc1cc(C)c2sc(C)c(-c3c(OC(=O)OCCCl)c(C)nn(C)c3=O)c2c1 [Compound 85]
- Bluegrass plant response rating [1, 14]: 10
- Plant response rating, Bluegrass [1, 15]: 25
- Plant response rating, Bluegrass [1, 16]: 40
- Plant response rating (scale of 0 to 100), Bluegrass ([1]; Preemergence, 31 g ai/ha): 40
- Plant response rating, Bluegrass [1, 17]: 60
- Plant response rating, Bluegrass [1, 18]: 65
- Plant response rating, Bluegrass [1, 19]: 75
- Plant response rating, Bluegrass [1, 20]: 20
- Ryegrass, Italian plant response rating [2, 14]: 80
- Plant response rating, Ryegrass, Italian [2, 15]: 85
- Plant response rating, Ryegrass, Italian [2, 16]: 90
- Plant response rating (scale of 0 to 100), Ryegrass, Italian ([2]; Preemergence, 31 g ai/ha): 55
- Plant response rating (scale of 0 to 100), Ryegrass, Italian ([2]; Preemergence, 62 g ai/ha): 80
- Plant response rating, Ryegrass, Italian [2, 18]: 85
- Plant response rating, Ryegrass, Italian [2, 19]: 90
- Plant response rating, Ryegrass, Italian [2, 20]: 85
- Deadnettle plant response rating [3, 14]: 10
- Plant response rating, Deadnettle [3, 15]: 40
- Plant response rating, Deadnettle [3, 16]: 45
- Plant response rating (scale of 0 to 100), Deadnettle ([3]; Preemergence, 31 g ai/ha): 0
- Plant response rating (scale of 0 to 100), Deadnettle ([3]; Preemergence, 62 g ai/ha): 0
- Plant response rating, Deadnettle [3, 18]: 10
- Plant response rating, Deadnettle [3, 19]: 35
- Plant response rating, Deadnettle [3, 20]: 15
- Chickweed plant response rating [4, 14]: 90
- Plant response rating, Chickweed [4, 15]: 100
- Plant response rating, Chickweed [4, 16]: 100
- Plant response rating (scale of 0 to 100), Chickweed ([4]; Preemergence, 31 g ai/ha): 100
- Plant response rating (scale of 0 to 100), Chickweed ([4]; Preemergence, 62 g ai/ha): 100
- Plant response rating, Chickweed [4, 18]: 100
- Plant response rating, Chickweed [4, 19]: 100
- Plant response rating, Chickweed [4, 20]: 100
- Field Poppy plant response rating [5, 14]: 70
- Plant response rating, Field Poppy [5, 15]: 80
- Plant response rating, Field Poppy [5, 16]: 95
- Plant response rating, Field Poppy [5, 19]: 95
- Plant response rating, Field Poppy [5, 20]: 90
- Foxtail, Green plant response rating [6, 14]: 75
- Plant response rating, Foxtail, Green [6, 15]: 85
- Plant response rating, Foxtail, Green [6, 16]: 85
- Plant response rating (scale of 0 to 100), Foxtail, Green ([6]; Preemergence, 31 g ai/ha): 25
- Plant response rating (scale of 0 to 100), Foxtail, Green ([6]; Preemergence, 62 g ai/ha): 55
- Plant response rating, Foxtail, Green [6, 18]: 100
- Plant response rating, Foxtail, Green [6, 19]: 100
- Plant response rating, Foxtail, Green [6, 20]: 80
- Radish, Wild plant response rating [7, 14]: 60
- Plant response rating, Radish, Wild [7, 15]: 75
- Plant response rating, Radish, Wild [7, 16]: 80
- Plant response rating (scale of 0 to 100), Radish, Wild ([7]; Preemergence, 31 g ai/ha): 0
- Plant response rating (scale of 0 to 100), Radish, Wild ([7]; Preemergence, 62 g ai/ha): 25
- Plant response rating, Radish, Wild [7, 18]: 100
- Plant response rating, Radish, Wild [7, 19]: 100
- Plant response rating, Radish, Wild [7, 20]: 65
- Canarygrass plant response rating [8, 14]: 75
- Plant response rating, Canarygrass [8, 15]: 85
- Plant response rating, Canarygrass [8, 16]: 90
- Plant response rating (scale of 0 to 100), Canarygrass ([8]; Preemergence, 31 g ai/ha): 80
- Plant response rating (scale of 0 to 100), Canarygrass ([8]; Preemergence, 62 g ai/ha): 90
- Plant response rating, Canarygrass [8, 18]: 90
- Plant response rating, Canarygrass [8, 19]: 95
- Plant response rating, Canarygrass [8, 20]: 85
- Wheat, Winter plant response rating [9, 14]: 0
- Plant response rating, Wheat, Winter [9, 15]: 0
- Plant response rating, Wheat, Winter [9, 16]: 10
- Plant response rating (scale of 0 to 100), Wheat, Winter ([9]; Preemergence, 31 g ai/ha): 0
- Plant response rating (scale of 0 to 100), Wheat, Winter ([9]; Preemergence, 62 g ai/ha): 0
- Plant response rating, Wheat, Winter [9, 18]: 5
- Plant response rating, Wheat, Winter [9, 19]: 15
- Plant response rating, Wheat, Winter [9, 20]: 0
- Windgrass plant response rating [10, 14]: 60
- Plant response rating, Windgrass [10, 15]: 80
- Plant response rating, Windgrass [10, 16]: 85
- Plant response rating (scale of 0 to 100), Windgrass ([10]; Preemergence, 31 g ai/ha): 55
- Plant response rating (scale of 0 to 100), Windgrass ([10]; Preemergence, 62 g ai/ha): 70
- Plant response rating, Windgrass [10, 18]: 95
- Plant response rating, Windgrass [10, 19]: 100
- Plant response rating, Windgrass [10, 20]: 70
- Barley, Winter plant response rating [11, 14]: 0
- Plant response rating, Barley, Winter [11, 15]: 5
- Plant response rating, Barley, Winter [11, 16]: 10
- Plant response rating (scale of 0 to 100), Barley, Winter ([11]; Preemergence, 31 g ai/ha): 0
- Plant response rating, Barley, Winter [11, 17]: 0
- Plant response rating, Barley, Winter [11, 18]: 0
- Plant response rating, Barley, Winter [11, 19]: 15
- Plant response rating, Barley, Winter [11, 20]: 0
- Barley, Spring plant response rating [12, 14]: 0
- Plant response rating, Barley, Spring [12, 15]: 15
- Plant response rating, Barley, Spring [12, 16]: 20
- Plant response rating (scale of 0 to 100), Barley, Spring ([12]; Preemergence, 31 g ai/ha): 0
- Plant response rating, Barley, Spring [12, 17]: 0
- Plant response rating, Barley, Spring [12, 18]: 0
- Plant response rating, Barley, Spring [12, 19]: 5
- Plant response rating, Barley, Spring [12, 20]: 0
- Mustard, Wild plant response rating [13, 14]: 10
- Plant response rating, Mustard, Wild [13, 15]: 30
- Plant response rating, Mustard, Wild [13, 16]: 80
- Plant response rating (scale of 0 to 100), Mustard, Wild ([13]; Preemergence, 31 g ai/ha): 25
- Plant response rating (scale of 0 to 100), Mustard, Wild ([13]; Preemergence, 62 g ai/ha): 25
- Plant response rating, Mustard, Wild [13, 18]: 35
- Plant response rating, Mustard, Wild [13, 19]: 40
- Plant response rating, Mustard, Wild [13, 20]: 25
